Reference: patent US10588316B2 (priority 2015, dated 2020)
≈ marks a conversion by molar mass, not a printed value. Where “and” joins values, the source holds several entries; their conditions need not be identical. Identical values can stand only once. Like-named read-outs stand apart in the source and are kept apart here.

Assays:
[1] = system: Fusarium asiaticum; experiment: microbe, parasite or virus in culture; type: cell-based; conditions: for Average Fungal Colony Diameter F.a / Growth Inhibition Rate F.a: sensitive strains
[2] = system: wheat scab; type: in vivo; conditions: Carbendazim 40 g a.i. per mu
[3] = system: wheat scab; type: in vivo
[4] = system: Fusarium graminearum; experiment: microbe, parasite or virus in culture; type: cell-based; conditions: for Average Fungal Colony Diameter F.g / Growth Inhibition Rate F.g: sensitive strains
[5] = parameters: species or system wheat; conditions: in vivo
[6] = system: rust; parameters: species or system wheat; conditions: in vivo
[7] = system: wheat scab; type: in vivo; conditions: Carbendazim 40 g a.i. per mu, control agent
[8] = system: wheat scab; type: in vivo; remark: listed apart in the source
[9] = system: leaf blight; parameters: species or system wheat; conditions: in vivo
[10] = system: powdery mildew; type: in vivo, wheat; conditions: Preparation 100 g/mu; Jinggangmycin 0, Tebuconazole 20 g ai. agent/mu
[11] = system: rust; type: in vivo, wheat; conditions: Preparation 100 (mL/mu); Jinggangmycin 0, Tebuconazole 20 g ai. agent/mu
[12] = system: leaf blight; type: in vivo, wheat
[13] = system: powdery mildew; type: in vivo, wheat; conditions: Preparation 100 (mL/mu); Jinggangmycin 0, Tebuconazole 20 g ai. agent/mu
[14] = system: wheat scab; type: in vivo; conditions: Preparation 100 g/mu; Jinggangmycin 0, Tebuconazole 20 g ai. agent/mu
[15] = system: powdery mildew; type: in vivo, wheat
[16] = system: leaf blight; type: in vivo, wheat; remark: listed apart in the source
[17] = system: carbendazim-resistant Fusarium asiaticum; experiment: microbe, parasite or virus in culture; type: cell-based; conditions: for DON Biosynthesis Inhibition Rate / Toxin Production Capability: Jinggangmycin + Tebuconazole 0 + 0.1 μg/ml
[18] = system: rust; type: in vivo, wheat; conditions: Preparation 100 g/mu; Jinggangmycin 0, Tebuconazole 20 g ai. agent/mu
[19] = system: leaf blight; type: in vivo, wheat; conditions: Preparation 100 (mL/mu); Jinggangmycin 0, Tebuconazole 20 g ai. agent/mu
[20] = system: powdery mildew; type: in vivo, wheat; conditions: dosage g ai./mu: c1 Jinggangmycin, c2 Tebuconazole of the line
[21] = system: wheat scab; type: in vivo; conditions: Preparation 50 g/mu; Tebuconazole 10 g ai. agent/mu
[22] = system: wheat scab; type: in vivo; remark: listed apart in the source
[23] = system: rust; type: in vivo, wheat
[24] = system: rust; type: in vivo, wheat; remark: listed apart in the source
[25] = system: powdery mildew; type: in vivo, wheat; remark: listed apart in the source
[26] = type: in vivo, wheat
[27] = system: wheat scab; type: in vivo; conditions: Preparation 100 (mL/mu); Jinggangmycin 0, Tebuconazole 20 g ai. agent/mu
[28] = system: leaf blight; type: in vivo, wheat; conditions: Preparation 100 g/mu; Jinggangmycin 0, Tebuconazole 20 g ai. agent/mu
[29] = system: powdery mildew; type: in vivo, wheat; remark: listed apart in the source
[30] = system: Fusarium graminearum and Fusarium asiaticum; experiment: organism not typed; type: cell-based
[31] = system: powdery mildew; type: in vivo, wheat; remark: listed apart in the source
[32] = type: in vivo, wheat; remark: listed apart in the source
[33] = system: rust; type: in vivo, wheat; remark: listed apart in the source
[34] = system: leaf blight; type: in vivo, wheat; remark: listed apart in the source
[35] = Tebuconazole 2.0 g ai. agent/mu
[36] = Tebuconazole 4.0 g ai. agent/mu
[37] = Tebuconazole 6.0 g ai. agent/mu
[38] = Tebuconazole 7.5 g ai. agent/mu
[39] = Tebuconazole 8.8 g ai. agent/mu
[40] = Tebuconazole 9.5 g ai. agent/mu
[41] = Tebuconazole 12.0 g ai. agent/mu
[42] = Tebuconazole 15.0 g ai. agent/mu
[43] = Tebuconazole 17.5 g ai. agent/mu
[44] = Tebuconazole 19.0 g ai. agent/mu
[45] = Preparation 15 g/mu, Tebuconazole 3 g ai. agent/mu
[46] = Preparation 37.5 g/mu, Tebuconazole 7.5 g ai. agent/mu
[47] = Preparation 50 g/mu, Tebuconazole 10 g ai. agent/mu
[48] = Preparation 22.5 g/mu, Tebuconazole 4.5 g ai. agent/mu
[49] = Preparation 30 g/mu, Tebuconazole 6 g ai. agent/mu

## COC(=O)Nc1nc2ccccc2[nH]1 [Carbendazim, carbendazim]
[1]; Fusarium asiaticum, read-out: Median Effective Concentration (EC50) for Growth Inhibition
  EC50: 0.45 µg/mL (≈ 2.35 µM)
[2]
  Disease Index Prevention Effect % Head Blight: 38.60%
[3]; Carbendazim 50 g a.i.
  Disease Index Prevention Effect % Head Blight: 49.04%
[4]; Fusarium graminearum, read-out: Median Effective Concentration (EC50) for Growth Inhibition
  EC50: 0.45 µg/mL (≈ 2.35 µM)
[5]
  Thousand Kernel Weight: 41.60 g
[6]
  Disease Index Prevention Effect % Rust: 61.20%
[7]
  Disease Index Prevention Effect % Actual Prevention Effect: 67.5%
[8]; 80 g of 50% of Carbendazim Wettable Powder
  Disease Index Prevention Effect % Head Blight: 64.6%
[9]
  Disease Index Prevention Effect % Leaf Blight: 48.50%

## Tebuconazole
[10]
  Disease Index Prevention Effect % Powdery Mildew: 96.2%
[11]
  Disease Index Prevention Effect % Rust: 82.4%
[12]; Tebuconazole 6 g ai. agent/mu
  Disease Index Prevention Effect % Leaf Blight: 64.5%
[12]; Tebuconazole 9 g ai. agent/mu
  Disease Index Prevention Effect % Leaf Blight: 70.1%
[12]; Tebuconazole 15 g ai. agent/mu
  Disease Index Prevention Effect % Leaf Blight: 72.4%
[12]; Tebuconazole 21 g ai. agent/mu
  Disease Index Prevention Effect % Leaf Blight: 73.5%
[13]
  Disease Index Prevention Effect % Powdery Mildew: 88.2%
[14]
  Disease Index Prevention Effect % Head Blight: 80.1%
[1]; F.a carbendazim-resistant strains
  Median Effective Concentration (EC50) for Growth Inhibition: 0.116 µg/mL
[1]; F.a phenamacril-resistant strains
  Median Effective Concentration (EC50) for Growth Inhibition: 0.111 µg/mL
[1]; F.a sensitive strains
  Median Effective Concentration (EC50) for Growth Inhibition: 0.102 µg/mL
[1]; Tebuconazole 0.02 μg/mL
  Average Fungal Colony Diameter F.a: 43 mm
  Growth Inhibition Rate F.a: 32.9%
[1]; Tebuconazole 0.078 μg/mL
  Average Fungal Colony Diameter F.a: 34 mm
  Growth Inhibition Rate F.a: 48.8%
[1]; Tebuconazole 0.3125 μg/mL
  Average Fungal Colony Diameter F.a: 22 mm
  Growth Inhibition Rate F.a: 70.8%
[1]; Tebuconazole 5.0 μg/mL
  Average Fungal Colony Diameter F.a: 9 mm
  Growth Inhibition Rate F.a: 88.0%
[15]; [35]
  Disease Index Prevention Effect % Powdery Mildew: 15.4%
[15]; [36]
  Disease Index Prevention Effect % Powdery Mildew: 28.5%
[15]; [37]
  Disease Index Prevention Effect % Powdery Mildew: 36.4%
[15]; [38]
  Disease Index Prevention Effect % Powdery Mildew: 58.2%
[15]; [39]
  Disease Index Prevention Effect % Powdery Mildew: 60.5%
[15]; [40]
  Disease Index Prevention Effect % Powdery Mildew: 65.2%
[15]; [41]
  Disease Index Prevention Effect % Powdery Mildew: 76.5%
[15]; [42]
  Disease Index Prevention Effect % Powdery Mildew: 74.5%
[15]; [43]
  Disease Index Prevention Effect % Powdery Mildew: 76.4%
[15]; [44]
  Disease Index Prevention Effect % Powdery Mildew: 81.2%
[16]; [35]
  Disease Index Prevention Effect % Leaf Blight: 14.5%
[16]; [36]
  Disease Index Prevention Effect % Leaf Blight: 19.2%
[16]; [37]
  Disease Index Prevention Effect % Leaf Blight: 29.5%
[16]; [38]
  Disease Index Prevention Effect % Leaf Blight: 71.2%
[16]; [39]
  Disease Index Prevention Effect % Leaf Blight: 73.1%
[16]; [40]
  Disease Index Prevention Effect % Leaf Blight: 74.2%
[16]; [41]
  Disease Index Prevention Effect % Leaf Blight: 76.5%
[16]; [42]
  Disease Index Prevention Effect % Leaf Blight: 78.9%
[16]; [43]
  Disease Index Prevention Effect % Leaf Blight: 80.3%
[16]; [44]
  Disease Index Prevention Effect % Leaf Blight: 81.2%
[3]; [35]
  Disease Index Prevention Effect % Head Blight: 12.9%
[3]; [36]
  Disease Index Prevention Effect % Head Blight: 25.6%
[3]; [37]
  Disease Index Prevention Effect % Head Blight: 42.5%
[3]; [38]
  Disease Index Prevention Effect % Head Blight: 56.7%
[3]; [39]
  Disease Index Prevention Effect % Head Blight: 61.5%
[3]; [40]
  Disease Index Prevention Effect % Head Blight: 65.4%
[3]; [41]
  Disease Index Prevention Effect % Head Blight: 68.4%
[3]; [42]
  Disease Index Prevention Effect % Head Blight: 71.8%
[3]; [43]
  Disease Index Prevention Effect % Head Blight: 73.9%
[3]; [44]
  Disease Index Prevention Effect % Head Blight: 74.2%
[17]; 7 days
  DON Biosynthesis Inhibition Rate: 4.2%
  Toxin Production Capability: 87.42 μgDON/g by dry weight of hyphae
[17]; 14 days
  DON Biosynthesis Inhibition Rate: 0.6%
  Toxin Production Capability: 52.50 μgDON/g by dry weight of hyphae
[17]; tebuconazole 0.1 μg/ml, seven and fourteen days
  inhibitory effect on toxin biosynthesis capability versus blank control: does not have significant inhibitory effects
[18]
  Disease Index Prevention Effect % Rust: 98.5%
[19]
  Disease Index Prevention Effect % Leaf Blight: 83.6%
[4]; F.g sensitive strains
  Median Effective Concentration (EC50) for Growth Inhibition: 0.096 µg/mL
[4]; Tebuconazole 0.02 μg/mL
  Average Fungal Colony Diameter F.g: 42 mm
  Growth Inhibition Rate F.g: 34.2%
[4]; Tebuconazole 0.078 μg/mL
  Average Fungal Colony Diameter F.g: 32 mm
  Growth Inhibition Rate F.g: 47.5%
[4]; Tebuconazole 0.3125 μg/mL
  Average Fungal Colony Diameter F.g: 21 mm
  Growth Inhibition Rate F.g: 72.1%
[4]; Tebuconazole 5.0 μg/mL
  Average Fungal Colony Diameter F.g: 9 mm
  Growth Inhibition Rate F.g: 88.0%
[20]
  Disease Index Prevention Effect % Powdery Mildew: 72.61% and 76.19% and 66.32% and 39.46%
[21]
  Disease Index Prevention Effect % Head Blight: 72.4%
[22]; Tebuconazole 6 g ai. agent/mu
  Disease Index Prevention Effect % Head Blight: 53.4%
[22]; Tebuconazole 9 g ai. agent/mu
  Disease Index Prevention Effect % Head Blight: 65.8%
[22]; Tebuconazole 15 g ai. agent/mu
  Disease Index Prevention Effect % Head Blight: 70.4%
[22]; Tebuconazole 21 g ai. agent/mu
  Disease Index Prevention Effect % Head Blight: 76.8%
[23]; [45]
  Disease Index Prevention Effect % Rust: 64.5%
[23]; [46]
  Disease Index Prevention Effect % Rust: 75.6%
[23]; [47]
  Disease Index Prevention Effect % Rust: 82.4%
[24]; Tebuconazole 6 g ai. agent/mu
  Disease Index Prevention Effect % Rust: 61.5%
[24]; Tebuconazole 9 g ai. agent/mu
  Disease Index Prevention Effect % Rust: 72.6%
[24]; Tebuconazole 15 g ai. agent/mu
  Disease Index Prevention Effect % Rust: 78.3%
[24]; Tebuconazole 21 g ai. agent/mu
  Disease Index Prevention Effect % Rust: 86.1%
[25]; [45]
  Disease Index Prevention Effect % Powdery Mildew: 48.7%
[25]; [48]
  Disease Index Prevention Effect % Powdery Mildew: 60.4%
[25]; [49]
  Disease Index Prevention Effect % Powdery Mildew: 64.9%
[25]; [46]
  Disease Index Prevention Effect % Powdery Mildew: 72.4%
[26]; [45]
  Thousand Kernel Weight: 40 g
[26]; [46]
  Thousand Kernel Weight: 41.5 g
[26]; [47]
  Thousand Kernel Weight: 40.8 g
[27]
  Disease Index Prevention Effect % Head Blight: 84.6%
[28]
  Disease Index Prevention Effect % Leaf Blight: 84.2%
[29]; Tebuconazole 6 g ai. agent/mu
  Disease Index Prevention Effect % Powdery Mildew: 62.4%
[29]; Tebuconazole 9 g ai. agent/mu
  Disease Index Prevention Effect % Powdery Mildew: 70.8%
[29]; Tebuconazole 15 g ai. agent/mu
  Disease Index Prevention Effect % Powdery Mildew: 76.4%
[29]; Tebuconazole 21 g ai. agent/mu
  Disease Index Prevention Effect % Powdery Mildew: 81.6%
[30]; sensitive strains
  activity of tebuconazole relative to carbendazim (by EC50): about 4.5 times
  activity of tebuconazole relative to phenamacril (by EC50): about 1.5 times
[30]; tebuconazole 0.1 μg/ml alone
  inhibition rate on the hyphal growth of the head blight fungi: about 50%
[8]; [48]
  Disease Index Prevention Effect % Head Blight: 48.2%
[8]; [49]
  Disease Index Prevention Effect % Head Blight: 53.9%
[31]; [45]
  Disease Index Prevention Effect % Powdery Mildew: 68.1%
[31]; [46]
  Disease Index Prevention Effect % Powdery Mildew: 73.5%
[31]; [47]
  Disease Index Prevention Effect % Powdery Mildew: 82.4%
[32]; Tebuconazole 6 g ai. agent/mu
  Thousand Kernel Weight: 40.5 g
[32]; Tebuconazole 9 g ai. agent/mu
  Thousand Kernel Weight: 41.5 g
[32]; Tebuconazole 15 g ai. agent/mu
  Thousand Kernel Weight: 42 g
[32]; Tebuconazole 21 g ai. agent/mu
  Thousand Kernel Weight: 42.7 g
[33]; [35]
  Disease Index Prevention Effect % Rust: 18.0%
[33]; [36]
  Disease Index Prevention Effect % Rust: 32.1%
[33]; [37]
  Disease Index Prevention Effect % Rust: 45.2%
[33]; [38]
  Disease Index Prevention Effect % Rust: 71.5%
[33]; [39]
  Disease Index Prevention Effect % Rust: 78.4%
[33]; [40]
  Disease Index Prevention Effect % Rust: 80.5%
[33]; [41]
  Disease Index Prevention Effect % Rust: 81.8%
[33]; [42]
  Disease Index Prevention Effect % Rust: 85.6%
[33]; [43]
  Disease Index Prevention Effect % Rust: 89.4%
[33]; [44]
  Disease Index Prevention Effect % Rust: 92.8%
[34]; [45]
  Disease Index Prevention Effect % Leaf Blight: 65.4%
[34]; [46]
  Disease Index Prevention Effect % Leaf Blight: 68.5%
[34]; [47]
  Disease Index Prevention Effect % Leaf Blight: 64.5%
